Laboratory results as given in article PMC5623053 (Frontiers in Molecular Biosciences, 2017).
Entries after “also recorded” stand apart in the source; their conditions may differ. Bridges are numbered along the chain shown (N, C = ends).

B1: G7-18NATE (cyclo-(CH2CO-WFEGYDNTFPC)-amide) (peptide)
peptide: {CH2CO}-WFEGYDNTFPC-NH2
modifications: thioether N-11
notes: cyclic peptide developed via phage display against the Grb7-SH2 domain; Purity >95% by LC-MS; source: synthetic peptide (standard Fmoc-chemistry), bought: Purar Chemicals (Australia)

Experiments:
[1] = target: T1, Grb2-SH2 S90R (Homo sapiens, UniProt P62993, S90R); assay: SPR binding of G7-18NATE to immobilized GST-Grb2-SH2 S90R mutant
T1 construct: Grb7-SH2 (residues 415-532) and Grb2-SH2 (residues 58-160) were incorporated into the pGex2T plasmid; made in house; host or cells: E. coli BL21(DE3)pLysS

[2] = system: SH2D2A; details: 79 SH2 domains, 100 μg peptide in PBST, duplicate spots; not quantitative
[3] = system: SH2 domain of Grb14; details: SPR; ref Gunzburg et al., 2012; cited from earlier work
[4] = system: Grb7-SH2 domain; design: method as in 3 sources, one per row (each row's own in cited_ref): ref Ambaye et al., 2011a; Watson et al., 2017 ||| ref Gunzburg et al., 2012 ||| ref Janes et al., 1997; Gunzburg et al., 2012; details: ref Janes et al., 1997; Gunzburg et al., 2012; cited from earlier work
Text: Grb7 is a signaling adaptor protein that has been specifically targeted through th ...

[5] = target: T2, Grb2-SH2 WT (Homo sapiens, UniProt P62993); assay: SPR binding of G7-18NATE to immobilized GST-Grb2-SH2 WT
T2 construct: Grb7-SH2 (residues 415-532) and Grb2-SH2 (residues 58-160) were incorporated into the pGex2T plasmid; made in house; host or cells: E. coli BL21(DE3)pLysS

[6] = system: other SH2 domains in the microarray with leucine present at this position; details: 79 SH2 domains, 100 μg peptide in PBST; SH2 domains other than Grb7 and SH2D2A with leucine at βD6
[7] = system: SH2 domain of Grb10; details: SPR; ref Gunzburg et al., 2012; cited from earlier work
[8] = system: Grb2 / HER3; design: method as in Pero et al., 2002; details: ref Pero et al., 2002; cited from earlier work
[9] = system: Grb10; details: 79 SH2 domains, 100 μg peptide in PBST, duplicate spots; not quantitative
Protocol: (§1) The microarray was conducted by the Protein Array and Analysis Core at the MD Anderson Cancer Center (University of Texas, USA) using standard protocols. […] Each SH2 domain was spotted in duplicate.

[10] = system: Grb14; details: 79 SH2 domains, 100 μg peptide in PBST, duplicate spots; not quantitative
Protocol: as §1

[11] = system: Grb2; details: 79 SH2 domains, 100 μg peptide in PBST, duplicate spots; not quantitative
Protocol: as §1

[12] = target: T3, Grb2-SH2 wild-type, GST fusion (residues 58-160) (UniProt P62993 58-160); assay: SPR; Biacore T100, CM5 chip; GST-SH2 fusion captured by amine-coupled anti-GST antibody, GST alone on the reference cell; G7-18NATE injected 60 s at 30 μL/min in 150 mM NaPO4, 150 mM NaCl, 1 mM DTT, pH 7.4; equilibrium responses fitted by a single-site binding model; details: both partners purified
T3 construct: Grb2, SH2 domain, residues 58-160, in pGex2T; also called Grb2-SH2 WT; WT Grb2-SH2

[13] = target: T4, Grb7-SH2 R462S, GST fusion (residues 415-532) (UniProt Q14451 415-532, R462S); assay: as above; details: both partners purified
T4 construct: Made by site-directed mutagenesis of the wild-type construct; primers in Supplementary Material; also called R462S Grb7-SH2; R462S mutant

[14] = target: T5, Grb7-SH2 wild-type, GST fusion (residues 415-532) (UniProt Q14451 415-532); assay: as above; details: both partners purified
T5 construct: also called Grb7-SH2 WT; WT Grb7-SH2

[15] = target: T4, Grb7-SH2 R462S, GST fusion (residues …); assay: as above; details: both partners purified; remark: listed apart in the source
[16] = SPR, Biacore T100, single-site binding model, errors are standard error of the fits
[17] = in words, injection of G7-18NATE over the chip surface

T4 sequence (Q14451 415-532 R462S): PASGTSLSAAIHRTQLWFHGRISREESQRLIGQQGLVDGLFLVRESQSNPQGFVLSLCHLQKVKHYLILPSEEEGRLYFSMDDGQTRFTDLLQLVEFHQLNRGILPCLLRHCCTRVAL
T5 sequence (Q14451 415-532): as the sequence (Q14451 415-532 R462S) above, with S48R counted along it

Molecule	Rmax [1, 16]	SPR binding response [1, 17]	microarray fluorescence / binding [2]	binding to Grb14 SH2 domain [3]	specificity for Grb7-SH2 over Grb2, Grb10 and Grb14 SH2 domains [4]	Rmax [5, 16]	SPR binding response [5, 17]	microarray binding [6]	binding to Grb10 SH2 domain [7]	effect on Grb2/HER3 interaction [8]	microarray fluorescence [9]	microarray fluorescence [10]	microarray fluorescence [11]	Kd [12]	Kd [13]	Kd [14]	Kd [15]
C[C@@H](O)[C@@H]1NC(=O)[C@H](CC(N)=O)NC(=O)[C@H](CC(=O)O)NC(=O)[C@H](Cc2ccc(O)cc2)NC(=O)CNC(=O)[C@H](CCC(=O)O)NC(=O)[C@H](Cc2ccccc2)NC(=O)[C@H](Cc2c[nH]c3ccccc23)NC(=O)CSC[C@@H](C(N)=O)NC(=O)[C@@H]2CCCN2C(=O)[C@H](Cc2ccccc2)NC1=O [G7-18NATE]	41.0 ± 3 RU	low responses, though slightly higher than seen for Grb2-SH2 WT; also recorded: minimal binding	detectable binding	minimal binding	specific for the Grb7-SH2 domain over the closely related SH2 domains of Grb2, Grb10, and Grb14	14.2 ± 0.9 RU	only a low binding response	no ability to be bound	minimal binding	no effect							
(cyclo-(CH2CO-WFEGYDNTFPC-RRMKWKKK(Biotin))-amide) (sidechain bridge or staple) [G7-18NATE-PB]			Fluorescence was observed, although at much lower intensity								no observation of fluorescence	no observation of fluorescence	no observation of fluorescence				
B1														> 125 µM	7.98 µM	2.43 µM	7.97 µM
